Entries after “also recorded” stand apart in the source; their conditions may differ.

Test [1] concerns K562 cells. In words: Cell cycle profile by flow cytometry, K562. Format: cell-based, human. The note with it: 48 hours, FIG. 24A. Here is the method:
K562 cells were treated with indicated concentrations (mM) of P3-E5 (ranging from […]) or GGTI-298 (ranging from […]) for 48 hours. Cell cycle profiles were monitored by flow cytometry. Percentages of cells in each phase of the cell cycle are indicated by different colors. Red: G0/G1 phase. Black: S phase. Gray: G2/M phase.
For orientation: In flow cytometry, cells or beads pass a laser one at a time.

Test [2] concerns K562 cells. The test is described as follows: K562 cell growth inhibition. The test is classed as cell-based, human. To be noted: 72 hours. The method, boiled down: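 Human erythroleukemia K562 cells exposed to compound for 72 hours. Cell number measured with CCK-8 and viability expressed relative to the DMSO control.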
In a further test the test system is MDA-MB-231. The test is described as follows: Cell cycle distribution by flow cytometry, MDA-MB-231. The test is classed as cell-based, human. To be noted: 10 μM, 48 hours. Here is the method:
(§1) Cell viability was determined by Cell Counting Kit-8 (CCK-8, Dojindo, Kumamoto, Japan) as described previously (31). Cell viability was calculated relative to the DMSO control. Cell cycle profile was analyzed by flow cytometry as described previously (32).

The test system of the next test is SE-Mk2. The test is described as follows: SE-Mk2 cell growth inhibition. Format: cell-based. The note with it: Homo sapiens, SEMK2, 144 h; 6 days, CCK-8, vs DMSO; read-out: IC50, SE-Mk2 (Blood). Here is the method: as §1
Test [3] relates to Panc-1. The test is described as follows: Cell cycle distribution by flow cytometry, PANC-1. The test is classed as cell-based, human. To be noted: 10 μM, 48 hours. Here is the method: as §1
The next test deals with Capan-2. The test is described as follows: Capan-2 cell growth inhibition. To be noted: Homo sapiens, Capan-2, 72 h; 3 days, CCK-8, vs DMSO; read-out: IC50, Capan-2 (Pancreas). Format: cell-based, human. Here is the method:
(§2) In FIG. 9-24 in vitro IC50 values for the GGTase I activity are reported. In Tables 7-15 in cell GI50 values for the growth inhibition of a variety of cancer cell lines (e.g., Jurkat, K562, MDA-MB-231, BT474, MCF7, MiaPaCa2, Aspc-1, Panc-1, Capan-2, CFpac-1, and MCF10a) are reported.
as §1

The test system of the next test is Jurkat. The test is described as follows: Cell cycle distribution by flow cytometry, Jurkat. Format: cell-based, human. The note with it: 10 μM, 48 hours. Here is the method:
as §1

The next test deals with Aspc-1. In words: Aspc-1 cell growth inhibition. The test is classed as cell-based, human. To be noted: Homo sapiens, ASPC1, 144 h; 6 days, CCK-8, vs DMSO; read-out: IC50, AsPc-1 (Pancreas). Here is the method: as §2, §1
The next test relates to MCF7. The test is described as follows: MCF7 cell growth inhibition. Format: cell-based, human. The method, boiled down:
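GI50 from CCK-8 viability read-out, with viability calculated relative to DMSO control.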

A further test concerns p21CIP1/WAF1 promoter. In words: p21 promoter luciferase reporter assay in NIH3T3 cells. The test is classed as cell-based. To be noted: NIH3T3, 48 hours, dose dependent. Here is the method:
For the p21^WAF1/CIP1 promoter luciferase assay, NIH3T3 cells were transfected with p21^WAF1/CIP1 promoter-Luc or vector plasmids (33) (both plasmids are provided by Dr. Genhong Cheng). Cells were treated with GGTI compounds. Promega luciferase assay kit was used according to the manufacturer's protocol.
Another mechanism through which GGTI can effect cell cycle progression is to inhibit RhoA which negatively regulates expression of a Cdk inhibitor p21^CIP1/WAF1. To investigate whether the GGTI compounds described herein can induce p21^CIP1/WAF1 expression, luciferase transcriptional activation from the p21^CIP1/WAF1 promoter (33) was measured. Transient expression systems with NIH3T3 cells were used to examine the ability of P61-A6 to induce p21^CIP1/WAF1-luciferase expression. P61-A6 induced significant (4-fold) inductions of luciferase activity versus DMSO in a dose dependence manner (FIG. 37C).
(A reporter such as luciferase makes a cellular process visible.)

For test [4], the system named is Rap1 geranylgeranylation in NIH3T3 cells. The test is described as follows: Unprenylated Rap1 immunoblot in NIH3T3 cells. Format: cell-based. The note with it: 48 hours. How it is done:
The inhibition of GGTase-I catalyzed protein geranylgeranylation was assessed by examining the accumulation of unprenylated Rap1. To measure the level of unprenylated Rap1, cells were cultured in DMEM plus 10% (v/v) FBS overnight, and then DMSO or appropriate inhibitors were added. Incubation was continued for 48 hours. The cells were harvested and lysed in lysis buffer (20 mM Tris-HCl, pH 7.5, 150 mM NaCl, 1 mM EDTA, 1% NP-40 and 1× Protease Inhibitor Cocktail). Whole cell lysates of NIH3T3 cells were electrophoresed on a 12% SDS-PAGE, transferred to nitrocellulose membranes and immunoblotted with the antibody against unprenylated form of Rap1 (Santa Cruz Biotechnology catalog number sc-1482, goat), total-Rap1 (Santa Cruz: sc-65) or actin (Sigma: A4700). Actin was used as a loading control.
(Immunoblotting shows a protein as a band on a membrane.)

Test [5] deals with Panc-1. In words: Panc-1 cell growth inhibition. Format: cell-based, human. The note with it: Homo sapiens, PANC-1, 72 h; 3 days, CCK-8, vs DMSO; read-out: IC50, PANC-1 (Pancreas). Here is the method: as §2
Panc-1 cells (Pancreatic cancer cell line) and Jurkat cells (T-cell leukemia) were treated with 12.5 μM of P5-H6 or 12.5 μM of mP5-H6a for 72 hours. The cell number was counted as described in Example 5.
as §1

The next test deals with BT474. The test is described as follows: BT474 cell growth inhibition. Format: cell-based, human. To be noted: Homo sapiens, BT-474, 72 h; 3 days, CCK-8, vs DMSO; read-out: IC50, BT474 (Breast). Here is the method: as §2, §1

Take `Cc1ccccc1S(=O)(=O)N1[C@@H](c2cccc(Cl)c2)C(C(=O)O)=CC[C@H]1c1ccc(Cl)cc1` [P3-E5]: the “cell cycle effect in K562 cells” value with K562 cells [1] is listed as “induces G1 arrest”. For the same compound, the “inhibition of proliferation of K562 cells” value in the test with K562 cells [2] (FIG. 23) is “inhibit the growth of the K562 cells”.

On to `Cc1ccccc1S(=O)(=O)N1C(c2ccc(Cl)cc2)C(C(=O)NC(Cc2ccccc2)C(N)=O)=CC1C(C)(C)C` (stereo not shown) [P61-A6], for which, in the test on MDA-MB-231 (DMSO 7.74), the “Percent G2/M, MDA-MB-231” value was 5.15%. Further, the “Percent G0/G1, MDA-MB-231” value with MDA-MB-231 (DMSO 73.78) was found to be 85.16%. Also, the IC50 was found to be 6.4 µM with SE-Mk2; 11.5 µM with Capan-2; 11.7 µM in the test with Aspc-1; 4.5 µM in the test on MCF7 (Homo sapiens, MCF7, 144 h, 6 days, CCK-8, vs DMSO, read-out: IC50, MCF-7 (Breast)); 2.2 µM in the test on K562 cells [2] (Homo sapiens, K562, FIG. 36A, read-out: IC50, inhibition of proliferation of K562 cells); 5.2 µM with Panc-1 [5]. The IC50 in the test with BT474 was 8.5 µM. Further, the “Percent G2/M, PANC-1” value in the test with Panc-1 [3] (DMSO 24.21) was 19.81%. The “Percent G0/G1, PANC-1” value with Panc-1 [3] (DMSO 42.08) is recorded as 54.13%. Also, the “Percent G2/M, Jurkat” value with Jurkat (DMSO 11.80) came out at 11.60%. For the same compound, the “Percent G0/G1, Jurkat” value in the test with Jurkat (DMSO 46.92) is reported as 57.87%. Further, in the test on MCF7 (72 hours, FIG. 37A), the “inhibition of proliferation of MCF-7” value was “dose-dependent inhibition of proliferation”. Further, the “induction of p21CIP1/WAF1-luciferase activity versus DMSO” value in the test with p21CIP1/WAF1 promoter is 4 fold. In test [4], the “appearance of the unprenylated (unprocessed) Rap1 band” value is on record as “in a dose dependent manner; also recorded: inhibits Rap1 geranylgeranylation”. The “appearance of the unprenylated Rap1 band at 2.5 μM” value in [4] (2.5 μM) was “observed”.
